Assay results: patent US20120157547A1, “COMPOSITIONS AND APPLICATIONS OF CAROTENOIDS OF IMPROVED ABSORPTION AND BIOAVAILABILITY” (priority 2010, published 2012)
Values joined by “and” are separate entries in the source; they are usually repeats but may differ in a detail not shown here. Equal entries are not always repeated.

What was measured:
[1] = Serum Lutein concentration by HPLC during 24 weeks of daily capsule ingestion (bioavailability evaluation); assay type: in vivo
Description: The evaluation was carried out over a period of 24 weeks with three (3) groups of subjects that ingested daily one gelatin capsule containing the following: • The first group ingested a capsule containing a dispersion of 20 mg of Micro-Mic™ in vegetable oil. • The second group ingested a gelatin capsule containing a dispersion of 20 mg of commercial crystalline Lutein dispersed in vegetable oil. • The third group ingested a gelatin capsule containing only vegetable oil (placebo). The three gelatin capsules were all the same color (dark brown). Blood samples were collected weekly and the serum analyzed for Lutein by HPLC, and the concentration was reported as (ng/ul) of Lutein The results obtained are shown for Baseline date, week 6th, week 12^t1, week 18th, and week 24th. The ratio between the concentrations at each week was divided by the Baseline concentration. The average of those ratios is reported at the base of each column.

[2] = Rate of increase in MPOD (Macular Pigment Optical Density) during 24 weeks of daily capsule ingestion; assay type: in vivo; details: 20 mg daily capsule
Description: The evaluation was carried out over a period of 24 weeks with three (3) groups of subjects that ingested daily one gelatin capsule containing the following: • The first group ingested a capsule containing a dispersion of 20 mg of Micro-Mic™ in vegetable oil. • The second group ingested a gelatin capsule containing a dispersion of 20 mg of commercial crystalline Lutein dispersed in vegetable oil. • The third group ingested a gelatin capsule containing only vegetable oil (placebo). The three gelatin capsules were all the same color (dark brown).
Rate of Increase in MPOD in Absorbance Units Per Week
The serum results are a better indicator of bioavailability than the macular pigment results. It is well established that some subjects are serum responders, but macular pigment non-responders. However in this evaluation the Micro-Mic™ group mean MPOD (Macular Pigment Optical Density) exceeds that of the crystalline Lutein subjects by approximately 14%.

- Week 6/Baseline, group average ([1]; average of the subjects' ratios, week 6): 4.964
- Week 12/Baseline, group average ([1]; average of the subjects' ratios, week 12): 4.492
- Week 18/Baseline, group average ([1]; average of the subjects' ratios, week 18): 4.345
- Week 24/Baseline, group average ([1]; average of the subjects' ratios, week 24): 3.931
- Week 6-24/Baseline, group average ([1]; average of the subjects' ratios, weeks 6-24): 4.433
- concentration at 6 weeks ([1]; human, serum, oral, 20 mg, serum, group average, week 6, 20 mg daily capsule in vegetable oil, read-out: Week 6 Lutein Conc. B, group average): 632 ng/mL
- concentration at 12 weeks ([1]; human, serum, oral, 20 mg, serum, group average, week 12, 20 mg daily capsule in vegetable oil, read-out: Week 12 Lutein Conc. C, group average): 577 ng/mL
- concentration at 18 weeks ([1]; human, serum, oral, 20 mg, serum, group average, week 18, 20 mg daily capsule in vegetable oil, read-out: Week 18 Lutein Conc. D, group average): 545 ng/mL
- concentration at 24 weeks ([1]; human, serum, oral, 20 mg, serum, group average, week 24, 20 mg daily capsule in vegetable oil, read-out: Week 24 Lutein Conc. E, group average): 458 ng/mL
- Baseline Lutein Conc. A, group average ([1]; serum, group average, baseline, group later given 20 mg daily capsule): 0.128 ng/µL
Structure (SMILES): CC1=C[C@H](O)CC(C)(C)[C@H]1/C=C/C(C)=C/C=C/C(C)=C/C=C/C=C(C)/C=C/C=C(C)/C=C/C1=C(C)C[C@@H](O)CC1(C)C [Lutein]
- Week 6/Baseline ([1]; ratio of serum Lutein conc., individual subject, week 6): 3.934 and 4.235 and 3.335 and 4.201 and 5.425 and 2.914 and 8.047 and 8.611 and 2.624 and 6.314
- Week 12/Baseline ([1]; ratio of serum Lutein conc., individual subject, week 12): 4.398 and 3.871 and 2.494 and 5.926 and 5.242 and 4.491 and 3.439 and 5.491 and 3.867 and 5.704
- Week 18/Baseline ([1]; ratio of serum Lutein conc., individual subject, week 18): 3.608 and 2.273 and 2.296 and 4.321 and 11.494 and 2.395 and 3.171 and 7.268 and 2.283 and 4.335
- Week 24/Baseline ([1]; ratio of serum Lutein conc., individual subject, week 24): 2.721 and 1.327 and 1.910 and 8.589 and 4.965 and 2.051 and 2.296 and 5.931 and 4.958 and 4.563
- Week 6-24/Baseline ([1]; ratio of serum Lutein conc., individual subject, weeks 6-24): 3.665 and 2.927 and 2.509 and 5.759 and 6.782 and 2.963 and 4.238 and 6.825 and 3.433 and 5.229
- Baseline Lutein Conc. A ([1]; serum, individual subject, baseline, group later given 20 mg daily capsule): 0.268 ng/ul and 0.108 ng/ul (3×) and 0.112 ng/ul and 0.063 ng/ul and 0.151 ng/ul and 0.119 ng/ul and 0.082 ng/ul and 0.164 ng/ul
- Week 6 Lutein Conc. B ([1]; serum, individual subject, week 6, 20 mg daily capsule in vegetable oil): 1.054 ng/µL and 0.457 ng/µL and 0.372 ng/µL and 0.265 ng/µL and 0.584 ng/µL and 0.439 ng/µL and 0.867 ng/µL and 1.028 ng/µL and 0.215 ng/µL and 1.035 ng/µL
- Week 12 Lutein Conc. C ([1]; serum, individual subject, week 12, 20 mg daily capsule in vegetable oil): 1.179 ng/µL and 0.418 ng/µL and 0.278 ng/µL and 0.373 ng/µL and 0.564 ng/µL and 0.677 ng/µL and 0.370 ng/µL and 0.655 ng/µL and 0.317 ng/µL and 0.935 ng/µL
- Week 18 Lutein Conc. D ([1]; serum, individual subject, week 18, 20 mg daily capsule in vegetable oil): 0.967 ng/µL and 0.246 ng/µL and 0.256 ng/µL and 0.272 ng/µL and 1.238 ng/µL and 0.361 ng/µL and 0.341 ng/µL and 0.867 ng/µL and 0.187 ng/µL and 0.711 ng/µL
- Week 24 Lutein Conc. E ([1]; serum, individual subject, week 24, 20 mg daily capsule in vegetable oil): 0.729 ng/µL and 0.143 ng/µL and 0.213 ng/µL and 0.541 ng/µL and 0.535 ng/µL and 0.309 ng/µL and 0.247 ng/µL and 0.708 ng/µL and 0.407 ng/µL and 0.748 ng/µL
- Rate of Increase in MPOD, Max ([2]; group maximum): 5.100E−03 Absorbance Units Per Week
- Rate of Increase in MPOD, Mean ([2]; group mean): 1.690E−03 Absorbance Units Per Week
- Rate of Increase in MPOD, Median ([2]; group median): 1.550E−03 Absorbance Units Per Week
- Rate of Increase in MPOD, Min ([2]; group minimum): −8.000E−04 Absorbance Units Per Week
